Measurements as given in patent US10045981B2, “Selective kinase inhibitors” (JAKPHARM, LLC, priority 2015, dated 2018).

Experiments:
[1] = biological target: EGFR (d746-750/T790M) (Homo sapiens, UniProt P00533, DEL746-750/T790M); test: Exemplary Kinase Panel Analysis; type: biochemical; settings: 10 concentrations, 3-fold serial dilutions starting at 5 μM, duplicate
[2] = biological target: EGFR (d752-759) (Homo sapiens, UniProt P00533, DEL752-759); test: Exemplary Kinase Panel Analysis; type: biochemical; settings: 10 concentrations, 3-fold serial dilutions starting at 5 μM, duplicate
Chain of EGFR (d752-759) (P00533 with tags, fused parts or gaps DEL752-759 limits assumed): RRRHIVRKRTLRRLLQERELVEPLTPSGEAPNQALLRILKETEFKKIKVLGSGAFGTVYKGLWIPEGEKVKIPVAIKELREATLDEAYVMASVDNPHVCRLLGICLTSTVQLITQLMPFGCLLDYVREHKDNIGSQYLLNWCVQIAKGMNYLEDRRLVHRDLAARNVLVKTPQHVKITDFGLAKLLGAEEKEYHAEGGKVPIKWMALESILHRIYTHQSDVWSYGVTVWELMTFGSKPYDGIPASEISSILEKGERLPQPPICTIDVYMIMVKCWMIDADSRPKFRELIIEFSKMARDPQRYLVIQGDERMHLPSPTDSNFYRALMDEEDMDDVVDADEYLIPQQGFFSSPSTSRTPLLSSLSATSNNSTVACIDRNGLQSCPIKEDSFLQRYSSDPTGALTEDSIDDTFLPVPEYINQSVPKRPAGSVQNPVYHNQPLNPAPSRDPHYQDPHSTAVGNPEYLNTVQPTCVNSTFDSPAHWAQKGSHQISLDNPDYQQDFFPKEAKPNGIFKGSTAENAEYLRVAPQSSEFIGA

[3] = biological target: EGFR (T790M) (Homo sapiens, UniProt P00533, T790M); test: Exemplary Kinase Panel Analysis; type: biochemical; settings: 10 concentrations, 3-fold serial dilutions starting at 5 μM, duplicate
Chain of EGFR (T790M) (P00533 25-1210 T790M): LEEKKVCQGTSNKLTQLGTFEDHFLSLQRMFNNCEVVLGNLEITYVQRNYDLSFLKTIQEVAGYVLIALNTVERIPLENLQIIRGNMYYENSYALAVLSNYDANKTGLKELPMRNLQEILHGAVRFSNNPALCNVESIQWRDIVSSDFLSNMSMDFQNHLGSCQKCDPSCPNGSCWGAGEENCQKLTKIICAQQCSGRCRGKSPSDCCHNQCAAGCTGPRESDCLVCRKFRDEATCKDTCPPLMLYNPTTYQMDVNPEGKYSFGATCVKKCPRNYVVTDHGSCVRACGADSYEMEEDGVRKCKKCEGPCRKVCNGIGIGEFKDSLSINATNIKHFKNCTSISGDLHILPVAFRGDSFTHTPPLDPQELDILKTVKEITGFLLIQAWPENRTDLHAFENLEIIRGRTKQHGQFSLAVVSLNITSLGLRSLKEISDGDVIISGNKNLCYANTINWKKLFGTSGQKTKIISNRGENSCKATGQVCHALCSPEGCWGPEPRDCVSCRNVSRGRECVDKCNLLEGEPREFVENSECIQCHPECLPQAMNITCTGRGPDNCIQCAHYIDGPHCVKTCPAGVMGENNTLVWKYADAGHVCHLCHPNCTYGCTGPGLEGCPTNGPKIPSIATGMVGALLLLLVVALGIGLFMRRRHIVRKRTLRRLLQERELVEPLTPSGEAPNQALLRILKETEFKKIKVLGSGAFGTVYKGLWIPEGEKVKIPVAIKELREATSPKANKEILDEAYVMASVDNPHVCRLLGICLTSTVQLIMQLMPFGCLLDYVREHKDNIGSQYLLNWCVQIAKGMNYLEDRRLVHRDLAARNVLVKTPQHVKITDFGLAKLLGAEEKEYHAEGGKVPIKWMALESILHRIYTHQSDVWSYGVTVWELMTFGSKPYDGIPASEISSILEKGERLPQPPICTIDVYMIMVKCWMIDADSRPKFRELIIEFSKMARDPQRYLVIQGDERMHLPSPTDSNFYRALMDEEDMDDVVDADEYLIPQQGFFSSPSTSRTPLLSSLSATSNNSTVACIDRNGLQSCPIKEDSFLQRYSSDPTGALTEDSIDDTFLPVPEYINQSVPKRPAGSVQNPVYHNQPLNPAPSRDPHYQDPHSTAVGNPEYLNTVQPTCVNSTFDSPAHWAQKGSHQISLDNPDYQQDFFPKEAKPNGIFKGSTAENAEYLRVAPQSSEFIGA

[4] = biological target: T1, ITK (Homo sapiens, UniProt Q08881); test: Exemplary Kinase Panel Analysis; type: biochemical; settings: 10 concentrations, 3-fold serial dilutions starting at 5 μM, duplicate
T1 sequence (Q08881 1-620): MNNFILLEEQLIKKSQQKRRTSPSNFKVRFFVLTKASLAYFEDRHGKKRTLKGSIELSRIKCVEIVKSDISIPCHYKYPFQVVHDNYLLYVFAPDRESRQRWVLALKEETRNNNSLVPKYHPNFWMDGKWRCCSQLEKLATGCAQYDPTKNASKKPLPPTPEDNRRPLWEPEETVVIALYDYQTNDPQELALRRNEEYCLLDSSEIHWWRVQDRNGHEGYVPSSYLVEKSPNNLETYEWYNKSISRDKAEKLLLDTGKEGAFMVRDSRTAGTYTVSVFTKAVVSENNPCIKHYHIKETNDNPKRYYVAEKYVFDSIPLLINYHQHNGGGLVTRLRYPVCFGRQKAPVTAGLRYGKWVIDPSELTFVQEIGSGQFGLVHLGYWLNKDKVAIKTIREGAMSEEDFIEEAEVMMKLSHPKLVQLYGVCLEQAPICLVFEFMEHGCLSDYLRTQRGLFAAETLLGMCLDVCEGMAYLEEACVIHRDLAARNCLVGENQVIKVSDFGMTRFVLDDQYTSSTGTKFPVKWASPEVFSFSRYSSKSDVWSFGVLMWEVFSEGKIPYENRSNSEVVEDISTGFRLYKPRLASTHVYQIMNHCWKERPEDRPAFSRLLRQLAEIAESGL

[5] = biological target: T2, JAK3 (Homo sapiens, UniProt P52333); test: Exemplary Kinase Panel Analysis; type: biochemical; settings: 10 concentrations, 3-fold serial dilutions starting at 5 μM, duplicate
T2 sequence (P52333 1-1124): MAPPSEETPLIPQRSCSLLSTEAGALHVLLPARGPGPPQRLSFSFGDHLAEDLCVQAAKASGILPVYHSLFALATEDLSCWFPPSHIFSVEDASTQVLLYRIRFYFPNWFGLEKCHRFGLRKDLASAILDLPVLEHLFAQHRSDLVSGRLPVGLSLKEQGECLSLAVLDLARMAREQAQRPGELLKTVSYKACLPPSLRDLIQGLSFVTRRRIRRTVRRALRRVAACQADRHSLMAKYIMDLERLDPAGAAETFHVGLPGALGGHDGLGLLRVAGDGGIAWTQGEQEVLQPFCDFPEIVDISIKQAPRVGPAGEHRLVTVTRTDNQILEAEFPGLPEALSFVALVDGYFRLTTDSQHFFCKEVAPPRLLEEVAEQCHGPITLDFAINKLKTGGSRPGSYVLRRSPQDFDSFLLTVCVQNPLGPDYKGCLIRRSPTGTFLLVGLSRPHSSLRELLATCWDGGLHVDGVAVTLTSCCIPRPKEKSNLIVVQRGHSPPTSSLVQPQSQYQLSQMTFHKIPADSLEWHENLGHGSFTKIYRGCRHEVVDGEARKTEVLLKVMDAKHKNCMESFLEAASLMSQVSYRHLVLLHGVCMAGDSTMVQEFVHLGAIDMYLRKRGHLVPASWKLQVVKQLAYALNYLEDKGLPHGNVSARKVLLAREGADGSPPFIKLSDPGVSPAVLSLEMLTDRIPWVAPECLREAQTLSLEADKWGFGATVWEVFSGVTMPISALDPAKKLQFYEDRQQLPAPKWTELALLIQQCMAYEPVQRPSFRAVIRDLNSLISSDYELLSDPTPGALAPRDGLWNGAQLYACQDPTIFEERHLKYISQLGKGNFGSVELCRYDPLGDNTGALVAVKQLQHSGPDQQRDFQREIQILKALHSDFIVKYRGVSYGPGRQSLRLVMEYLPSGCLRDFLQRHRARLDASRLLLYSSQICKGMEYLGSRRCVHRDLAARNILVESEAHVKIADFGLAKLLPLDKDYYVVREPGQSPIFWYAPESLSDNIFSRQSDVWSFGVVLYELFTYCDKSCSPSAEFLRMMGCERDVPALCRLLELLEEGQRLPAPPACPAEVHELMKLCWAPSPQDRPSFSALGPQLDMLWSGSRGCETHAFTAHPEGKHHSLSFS

[6] = biological target: T3, TXK (Homo sapiens, UniProt P42681); test: Exemplary Kinase Panel Analysis; type: biochemical; settings: 10 concentrations, 3-fold serial dilutions starting at 5 μM, duplicate
T3 sequence (P42681 1-527): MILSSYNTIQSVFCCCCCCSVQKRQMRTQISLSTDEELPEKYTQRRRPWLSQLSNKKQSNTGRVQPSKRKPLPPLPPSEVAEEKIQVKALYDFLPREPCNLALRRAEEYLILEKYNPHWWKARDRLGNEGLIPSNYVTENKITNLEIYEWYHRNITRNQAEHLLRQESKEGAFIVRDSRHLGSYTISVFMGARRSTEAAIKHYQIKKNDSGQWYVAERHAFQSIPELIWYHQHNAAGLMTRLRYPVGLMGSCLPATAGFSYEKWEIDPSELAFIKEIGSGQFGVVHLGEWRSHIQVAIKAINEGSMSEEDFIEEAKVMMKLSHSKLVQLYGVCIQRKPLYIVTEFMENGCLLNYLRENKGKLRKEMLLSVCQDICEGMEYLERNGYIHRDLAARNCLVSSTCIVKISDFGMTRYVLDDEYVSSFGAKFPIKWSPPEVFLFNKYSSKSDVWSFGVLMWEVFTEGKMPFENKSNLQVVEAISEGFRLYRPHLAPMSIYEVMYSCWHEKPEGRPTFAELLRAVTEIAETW

[7] = Brain penetration classification
[8] = Rat Liver Microsomes stability; type: in vitro ADME; settings: read-out: Rat Liver Microsomes t½
[9] = Mouse Liver Microsomes stability; type: in vitro ADME; settings: read-out: Mouse Liver Microsomes t½
[10] = biological target: CYP2C19 (Homo sapiens, UniProt P33261); test: CYP2C19 inhibition LCMS; type: in vitro ADME
Chain of CYP2C19 (P33261 whole entry): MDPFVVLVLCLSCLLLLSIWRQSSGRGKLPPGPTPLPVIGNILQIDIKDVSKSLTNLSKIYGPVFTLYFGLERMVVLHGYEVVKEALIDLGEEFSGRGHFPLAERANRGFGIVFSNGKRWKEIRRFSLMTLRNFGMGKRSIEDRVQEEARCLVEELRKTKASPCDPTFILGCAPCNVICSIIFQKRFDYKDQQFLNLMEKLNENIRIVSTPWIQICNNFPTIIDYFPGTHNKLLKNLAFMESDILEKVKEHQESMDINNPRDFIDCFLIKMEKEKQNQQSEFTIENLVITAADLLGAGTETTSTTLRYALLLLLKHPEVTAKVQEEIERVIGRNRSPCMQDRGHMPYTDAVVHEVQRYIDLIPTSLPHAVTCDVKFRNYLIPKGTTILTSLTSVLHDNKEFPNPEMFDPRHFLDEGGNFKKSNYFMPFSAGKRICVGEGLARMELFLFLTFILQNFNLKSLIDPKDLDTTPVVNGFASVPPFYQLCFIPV

[11] = test system: L929 Fibroblasts; test: Cytotoxicity Screening L929 Fibroblasts; type: cell-based
Source text: The cytotoxicity screening panel included cell count, nuclear size, DNA structure, cell membrane permeability, mitochondrial mass, mitochondrial membrane potential, and cytochrome C release.

Chain of EGFR (d746-750/T790M) (P00533 with tags, fused parts or gaps DEL746-750/T790M limits assumed): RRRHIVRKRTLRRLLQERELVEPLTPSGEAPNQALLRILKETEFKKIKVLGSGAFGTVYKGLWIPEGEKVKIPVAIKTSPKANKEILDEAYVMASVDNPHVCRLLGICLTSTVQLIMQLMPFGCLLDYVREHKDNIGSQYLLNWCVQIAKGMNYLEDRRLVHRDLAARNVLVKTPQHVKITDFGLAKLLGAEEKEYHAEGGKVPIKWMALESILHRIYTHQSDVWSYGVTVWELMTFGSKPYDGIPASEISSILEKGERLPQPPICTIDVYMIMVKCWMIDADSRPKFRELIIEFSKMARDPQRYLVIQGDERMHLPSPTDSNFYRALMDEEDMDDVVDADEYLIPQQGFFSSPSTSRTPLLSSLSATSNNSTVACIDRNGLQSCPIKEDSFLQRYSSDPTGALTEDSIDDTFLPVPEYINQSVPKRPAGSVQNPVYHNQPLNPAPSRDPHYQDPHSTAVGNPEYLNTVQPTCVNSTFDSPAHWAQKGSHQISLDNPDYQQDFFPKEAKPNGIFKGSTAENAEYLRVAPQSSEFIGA

SMILES | IC50 [1] [nM] | IC50 [2] [nM] | IC50 [3] [nM] | IC50 [4] [nM] | IC50 [5] [nM] | IC50 [6] [nM] | Brain penetration classification [7] | half-life ([8]; first session (before /)) [min] | half-life ([8]; second session (after /)) [min] | half-life ([9]; first session (before /)) [min] | half-life ([9]; second session (after /)) [min] | IC50 ([10]; first session (before /)) [µM] | IC50 ([10]; second session (after /)) [µM] | Minimal Effective Concentration (MEC, uM) [11] [µM]
C=CC(=O)Nc1cc(CN2CCN(C)C(=O)C2)cc(-c2cnc3ccccc3n2)c1 [Compound 1a] | 87.9 | 194 | 688 | 72.1 | 1.57 | 31.6 | Low | 50 | 36 | 7.3 | 15 | > 100 | 90 | 9
C=CC(=O)Nc1cc(CN2CCNC(=O)C2)cc(-c2cnc3ccccc3n2)c1 [Compound 1b, N-[3-[(3-oxopiperazin-1-yl)methyl]-5-quinoxalin-2-yl-phenyl] prop-2-enamide] | 560 | 1560 | 3540 | 68 | 0.972 | 16.1 | Low | 63 | 77 | 23 | 50 | > 100 | > 100 | 20
C=CC(=O)Nc1cc(CC(=O)OC)cc(-c2cnc3ccccc3n2)c1 [Compound 2] | 299 | 1030 | 3310 | 34.9 | 1.19 | 14.9 | Moderate | 2 | 2.2 | 3.3 | 6 | > 100 | 95 | 2
C=CC(=O)Nc1cc(NS(C)(=O)=O)cc(-c2cnc3ccccc3n2)c1 [Compound 3] | 996 | 3180 | 2240 | 278 | 24.9 | 144 | Low | 38 | 60 | 25 | 84 | > 100 | 59 | 10
